# Measured values as given in patent US20260364068A1, “ANTIVIRAL USE OF HETEROARYL DERIVATIVE COMPOUND” (UIF (University Industry Foundation), Yonsei University, priority 2022, published 2026).
# Like-named read-outs stand apart in the source and are kept apart here.
# Tests used:
# Format in all cases: cell-based
# [1] = Cell viability measurement (MTS), Vero cells; details: monkey
# Protocol: (§1) Experimental Example 3: Cell Viability Measurement
# (§2) Vero cell line (VERO01WCB-1201, Ministry of Food and Drug Safety, Republic of Korea), Calu-3 cell line (KCLB #30055, Korea Cell Line Bank (KCLB), Republic of Korea), CellTiter 96® AQueous One Solution Cell Proliferation Assay kit (Promega, cat. #G3582), and Infinite M200 microplate reader (Tecan).
# Vero cells were cultured at 37 °C and 5% CO2 in DMEM medium supplemented with 10% fetal bovine serum, 100 units/mL penicillin, and 100 μg/mL streptomycin.
# (§3) Vero cells or Calu-3 cells were seeded in 96-well microplates and cultured for 24 hours until the cell confluency reached 20%. After the incubation, compounds were treated in DMSO at concentrations (1, 3, and 10 μM) to reach 0.5% v/v in each well, and reacted at 37 °C for 48 hours. Into each well of the incubated 96-well microplate, 3-(4,5-dimethylthiazol-2-yl)-5-(3-carboxymethoxyphenyl)-2-(4-sulfophenyl)-2H-tetrazolium salt (MTS) assay solution [CellTiter 96® AQueous One Solution Cell Proliferation Assay kit (Promega)] mixed with DMEM medium at a ratio of 1:5, was dispensed at 100 μL/well and incubated at 37 °C for 1 hour. The 490 nm and 690 nm absorbance was then measured using an Infinite M200 instrument.
# (§4) The cell viability (also, referred to as cell survival rate) (%) by compound treatment was calculated using the following analysis method. The 690 nm background absorbance value was subtracted from the measured 490 nm absorbance value. Then, to obtain the cell viability of each test group, the viability of the DMSO-treated group that was not treated with the compound was set to 100% and then the relative viability 1 of each compound was calculated. Two to six repeated tests were performed to obtain the results, and the mean values of the results were categorized into the following ranges and shown in Table 5 below (A: 80% survived, B: 50-80% survived, N/A: not tested)
# [2] = test system: Severe Acute Respiratory Syndrome Coronavirus Type 2; assay: microbe, parasite or virus in culture; details: Vero, 10 uM, read-out: Virus replication inhibition efficacy
# [3] = test system: Severe Acute Respiratory Syndrome Coronavirus Type 2; assay: microbe, parasite or virus in culture; details: Calu-3, 10 uM, read-out: Virus replication inhibition efficacy
# [4] = Cell viability measurement (MTS), Calu-3 cells; details: human
# Protocol: as §1, §2
# Calu-3 cells were cultured at 37 °C and 5% CO2 in MEM medium supplemented with 10% fetal bovine serum, 2.2 g/L sodium bicarbonate, 1% 100 units/mL penicillin, and 100 μg/mL streptomycin.
# as §3, §4
# [5] = virus strain NCCP-43344, 48 hours
# [6] = virus strain NCCP-43388, 48 hours
SMILES,"viability at 48 h, 1 µM [1] [%]","viability at 48 h, 3 µM [1] [%]","viability at 48 h, 10 µM [1] [%]","viability at 48 h, 1 µM [4] [%]",other results
"Fc1cc2nc(-c3cccc(Nc4ccc(-c5ccccc5)nn4)c3)[nH]c2cc1Br [Example 4, N-[3-(6-bromo-5-fluoro-1H-benzo[d]imidazol-2-yl)phenyl]-6-phenylpyridazin-3-amine]",> 80,> 80,50 to 80,–,–
"FC(F)(F)Oc1ccc2nc(-c3cccc(Nc4ccc(-c5ccccc5)nn4)c3)[nH]c2c1 [Example 6, 6-phenyl-N-(3-(6-(trifluoromethoxy)-1H-benzo[d]imidazol-2-yl)phenyl)pyridazin-3-amine]",> 80,50 to 80,–,–,–
"FC(F)(F)c1cc2nc(-c3cccc(Nc4ccc(-c5ccccc5)nn4)c3)[nH]c2cc1Br [Example 9, N-{3-[6-bromo-5-(trifluoromethyl)-1H-benzo[d]imidazol-2-yl]phenyl}-6-phenylpyridazin-3-amine]",> 80,50 to 80,–,–,"inhibition at 10 µM [2, 5]: 30 to 60%"
"Clc1cc2nc(-c3cccc(Nc4ccc(-c5ccccc5)cn4)c3)[nH]c2cc1Cl [Example 13, N-[3-(5,6-dichloro-1H-benzo[d]imidazol-2-yl)phenyl]-5-phenylpyridin-2-amine]",> 80,> 80,50 to 80,–,"inhibition at 10 µM [3, 5]: > 60%"
"FC(F)(F)c1ccc2nc(-c3cccc(Nc4ncc(-c5ccccc5)cn4)c3)[nH]c2c1 [Example 14, 5-phenyl-N-(3-(6-(trifluoromethyl)-1H-benzo[d]imidazol-2-yl)phenyl)pyrimidin-2-amine]",> 80,–,–,–,–
"Fc1cccc(-c2ccc(Nc3cccc(-c4nc5ccc(C(F)(F)F)cc5[nH]4)c3)nc2)c1 [Example 18, 5-(3-fluorophenyl)-N-(3-(6-(trifluoromethyl)-1H-benzo[d]imidazol-2-yl)phenyl)pyridin-2-amine]",> 80,–,50 to 80,–,–
"Fc1ccc2nc(-c3cccc(Nc4ccc(-c5cccnn5)cc4)c3)[nH]c2c1 [Example 25, 3-(6-fluoro-1H-benzo[d]imidazol-2-yl)-N-(4-(pyridazin-3-yl)phenyl)aniline]",> 80,> 80,> 80,–,"inhibition at 10 µM [3, 5]: > 60%"
"FC(F)(F)c1ccc2nc(-c3cccc(Nc4ccc(-c5cnccn5)cc4)c3)[nH]c2c1 [Example 29, N-[4-(pyrazin-2-yl)phenyl]-3-[6-(trifluoromethyl)-1H-benzo[d]imidazol-2-yl]aniline]",> 80,–,–,–,–
"c1cc(Nc2ccc(-c3cncnc3)cc2)cc(-c2nc3ccccc3[nH]2)c1 [Example 30, 3-(1H-benzo[d]imidazol-2-yl)-N-(4-(pyrimidin-5-yl)phenyl)aniline]",> 80,50 to 80,–,50 to 80,"inhibition at 10 µM [3, 6]: > 60%"
"c1cncc(-c2ccc(Nc3cccc(-c4nc5ccccc5[nH]4)c3)cc2)c1 [Example 31, N-[3-(1H-benzo[d]imidazol-2-yl)phenyl]-4-(pyridin-3-yl)aniline]",> 80,–,50 to 80,50 to 80,–
"c1cc(Nc2ccc(-c3cnccn3)cc2)cc(-c2nc3ccccc3[nH]2)c1 [Example 32, 3-(1H-benzo[d]imidazol-2-yl)-N-(4-(pyrazin-2-yl)phenyl)aniline]",> 80,> 80,50 to 80,> 80,"viability at 48 h, 3 µM [4]: 50 to 80%; inhibition at 10 µM [3, 6]: > 60%"
"Cc1cscc1-c1cnc(Nc2cccc(-c3nc4ccccc4[nH]3)c2)nc1 [Example 43, N-(3-(1H-benzo[d]imidazol-2-yl)phenyl)-5-(4-methylthiophen-3-yl)pyrimidin-2-amine]",> 80,–,> 80,> 80,"viability at 48 h, 3 µM [4]: 50 to 80%"
"c1ccc(-c2cnc(Nc3cccc(-c4nc5ccccc5[nH]4)c3)nc2)nc1 [Example 44, N-(3-(1H-benzo[d]imidazol-2-yl)phenyl)-5-(pyridin-2-yl)pyrimidin-2-amine]",–,–,–,> 80,"viability at 48 h, 3 µM [4]: 50 to 80%; inhibition at 10 µM [3, 6]: > 60%"
"Fc1ccc2nc(-c3cccc(Nc4ncc(-c5ccccn5)cn4)c3)[nH]c2c1 [Example 45, N-[3-(6-fluoro-1H-benzo[d]imidazol-2-yl)phenyl]-5-(pyridin-2-yl)pyrimidin-2-amine]",–,> 80,50 to 80,50 to 80,"inhibition at 10 µM [3, 6]: 30 to 60%"
"FC(F)(F)c1ccc2nc(-c3cccc(Nc4ncc(-c5cccnn5)cn4)c3)[nH]c2c1 [Example 52, 5-(pyridazin-3-yl)-N-(3-(6-(trifluoromethyl)-1H-benzo[d]imidazol-2-yl)phenyl)pyrimidin-2-amine]",> 80,> 80,> 80,50 to 80,"viability at 48 h, 3 µM [4]: 50 to 80%; viability at 48 h, 10 µM ([4]; 10 μM): 50 to 80%"
Fc1ccc2nc(-c3cccc(Nc4ccc(-c5cccnn5)cn4)c3)[nH]c2c1 [Example 55],> 80,–,50 to 80,–,–
"c1cc(Nc2ccc(-c3cccnn3)cn2)cc(-c2nc3ccccc3[nH]2)c1 [Example 56, N-[3-(1H-benzo[d]imidazol-2-yl)phenyl]-5-(pyridazin-3-yl)pyridin-2-amine]",> 80,–,> 80,> 80,"viability at 48 h, 3 µM [4]: 50 to 80%"
"FC(F)(F)c1ccc2nc(-c3cccc(Nc4ccc(-c5ccccn5)cn4)c3)[nH]c2c1 [Example 57, N-{3-[6-(trifluoromethyl)-1H-benzo[d]imidazol-2-yl]phenyl}-[2,3′-bipyridin]-6′-amine]",> 80,> 80,50 to 80,50 to 80,–
"Fc1ccc2nc(-c3cccc(Nc4ccc(-c5ccccn5)cn4)c3)[nH]c2c1 [Example 58, N-(3-(6-fluoro-1H-benzo[d]imidazol-2-yl)phenyl)-[2,3′-bipyridine]-6′-amine]",> 80,> 80,–,50 to 80,–
"c1ccc(-c2ccc(Nc3cccc(-c4nc5ccccc5[nH]4)c3)nc2)nc1 [Example 59, N-[3-(1H-benzo[d]imidazol-2-yl)phenyl]-[2,3′-bipyridin]-6′-amine]",> 80,–,–,> 80,"viability at 48 h, 3 µM [4]: 50 to 80%"
"COC(=O)c1ccc2nc(-c3cccc(Nc4ccc(-c5cccnn5)cc4)c3)[nH]c2c1 [Example 61, methyl 2-(3-((4-(pyridazin-3-yl)phenyl)amino)phenyl)-1H-benzo[d]imidazol-6-carboxylate]",> 80,–,–,–,–
"Fc1ccc2nc(-c3cccc(Nc4ccc(-c5ccncn5)cn4)c3)[nH]c2c1 [Example 72, N-(3-(6-fluoro-1H-benzo[d]imidazol-2-yl)phenyl)-5-(pyrimidin-4-yl)pyridin-2-amine]",–,> 80,–,–,–
"c1cc(Nc2ncc(-c3ccncn3)cn2)cc(-c2nc3ccccc3[nH]2)c1 [Example 76, N-[3-(1H-benzo[d]imidazol-2-yl)phenyl]-[4,5′-bipyrimidin]-2′-amine]",–,–,–,–,"inhibition at 10 µM [2, 6]: 30 to 60%; inhibition at 10 µM [3, 6]: 30 to 60%"
"c1cc(Nc2ncc(-c3ccsc3)cn2)cc(-c2nc3ccccc3[nH]2)c1 [Example 164, N-[3-(1H-benzo[d]imidazol-2-yl)phenyl]-5-(3-thienyl)pyrimidin-2-amine]",–,–,–,–,"inhibition at 10 µM [2, 6]: > 60%; inhibition at 10 µM [3, 6]: > 60%"
"c1cc(Nc2ncc(-c3ncco3)cn2)cc(-c2nc3ccccc3[nH]2)c1 [Example 171, N-[3-(1H-benzo[d]imidazol-2-yl)phenyl]-5-oxazol-2-yl-pyrimidin-2-amine]",–,–,–,–,"inhibition at 10 µM [2, 6]: > 60%; inhibition at 10 µM [3, 6]: > 60%"
"Fc1cccc(-c2cnc(Nc3cccc(-c4nc5ccc(C(F)(F)F)cc5[nH]4)c3)nc2)n1 [Example 258, 5-(6-fluoropyridin-2-yl)-N-(3-(6-(trifluoromethyl)-1H-benzo[d]imidazol-2-yl)phenyl)pyrimidin-2-amine]",–,–,–,–,"inhibition at 10 µM [2, 6]: 30 to 60%"
"Fc1cc2nc(-c3cccc(Nc4cnc(-c5ccccn5)cn4)c3)[nH]c2cc1F [Example 298, N-(3-(5,6-difluoro-1H-benzo[d]imidazol-2-yl)phenyl)-5-(pyridin-2-yl)pyrazin-2-amine]",–,–,–,–,"inhibition at 10 µM [3, 6]: 30 to 60%"
